Measured values: US20040115289A1, “Cosmetic or medicinal composition containing sesquiterpene lactone or the like for treating hair -growth related disorders, and preparation method” (priority 2000, published 2004)

Legend:
[1] = tested on: hairs in the telogenic phase; experiment: Test on the rabbit: hair growth after topical application; assay type: in vivo; conditions: 1% solution in the same excipient as the Arnica montana extract
Protocol: Male rabbits aged at least 12 weeks and identical in age, in order for the hairs of these animals to be in the telogenic phase, which can be confirmed by shearing the animals, are used.
The test products are dissolved in pure ethanol in the proportion of a concentration of 25% (w/v). This solution is then diluted 1/10 with sweet almond oil. A concentration of active product of 2.5% is then obtained.
0.2 ml of these solutions are deposited on a gauze applied to the skin and a control, obtained by preparing the same solvent as that which was used to dissolve the active principles, is also deposited. The products and the control are left in contact with the skin for 15 minutes and then the gauze is removed. The treatment is carried out for 2 days at the rate of three applications per day at intervals of four hours.
The difference between the mean time taken by the hairs to grow on the treated parts and the control parts is subsequently evaluated.
(§1) A solution comprising 1% of pure commercial parthenolide (Aldrich, ref. 38,428-3) and a solution comprising 1% of pure commercial cnicin (Extrasynthese, ref. 8725) are prepared in the same excipient as the Arnica montana extract and are subjected to the test on the rabbit.

hairs of C57/B16 mouse = experiment: Tests on the C57/B16 mouse: hair growth after topical application; assay type: in vivo; conditions: section on the C57/B16 mouse; 1% solution in the same excipient as the Arnica montana extract
Protocol: Female mice aged 5 weeks, all identical, are used. The mice are […] on the back, so as to render the hairs unnoticeable.
0.2 ml of one of each product in the same solvent as for the test on the rabbits and at the same concentration is deposited on the backs of the mice.
A test is thus carried out by comparison between different mice, in contrast to the test on the rabbit, where the same animal represents its own control.
The product is deposited on the back, without using gauze, once daily for 5 days in a row. […] They become visible on the second day of treatment to reach approximately 1 mm from the third day, whereas the hairs begin to grow on the control mice only from the third week after the beginning of the treatment.
as §1

C=C1C(=O)O[C@@H]2/C=C(\CO)CC/C=C(\C)C[C@H](OC(=O)C(=C)[C@@H](O)CO)[C@@H]12 [cnicin]
growth of the hairs compared with the Arnica extract [1]: approximately two times worse
growth of the hairs compared with the 2.5% Arnica extract (hairs of C57/B16 mouse): approximately two times worse
